Series [1] has as its system Caspase-3. The series can be described thus: Apoptosis-related proteins by western blot, Caspase-3 in BEL-7402 cells. Format: cell-based. To be noted: BEL-7402 cells, 0, 50 and 100 nM, 24 h, FIG. 10 B. As for the experimental part: (§1) 2.4 Detection of Apoptosis-Related Proteins by Western Blot
(§2) BEL-7402 cells in the logarithmic growth phase were taken and inoculated in a 12-well plate at 5×10^5 cells per well. The cells treated with TPO with final concentrations of 0, 50 and 100 nM were used. After 24 h of treatment, the cells were collected, then lysate was added, and total proteins were extracted after sufficient lysis on ice. After the protein concentration was measured by a BCA method, the Loading buffer was added and boiled at 100° C. for 10 min to fully denature the proteins. The denatured sample was subjected to SDS-PAGE gel electrophoresis and electrically transferred to a PVDF membrane. The transferred PVDF membrane was sealed with a 5% BSA solution in TBST at a room temperature for 1 h, then incubated overnight with the corresponding primary antibody at 4° C., washed with TBST, incubated with the secondary antibody at a room temperature for 2 h, and washed with TBST again.
(§3) Finally, an ECL chemiluminescent solution was added to make the membrane strip emit light, electrophoresis results were obtained by pressing, developing and fixing with photosensitive films, and the change trends of apoptosis-related proteins among different treatment groups were observed.

In another series the test system is HepG2 liver cancer cells. The series can be described thus: Cell proliferation by MTT method, HepG2. Format: cell-based. The note with it: HepG2, 10, 25, 50, 100 nM, 24 h, FIG. 9. As for the experimental part: (§4) 2.2 Detection of Cell Proliferation by MMT Method
(§5) When the liver cancer cells grew to the logarithmic phase, the single cell suspension was inoculated in a 96-well plate at 1×10^4 cells per well. A blank group was a DMEM medium containing 10% fetal bovine serum, a control group was a solvent-added control (DMSO) cell group, and an experimental group was a cell group treated with drugs with different final concentrations (10, 25, 50, 100 nM). After 24 h of treatment, the medium supernatant was carefully aspirated, and 100 μL of MTT solution with a final concentration of […] diluted with the medium was added to each well. After the cells were cultured for 4 h, the medium was discarded, 150 μL of DMSO solution was added to each well, and shaking was performed at a low speed on the shaker for 10 min in the dark. After the crystals were fully dissolved, the absorbance (A) of each well was detected at 490 nm with the microplate reader. Cell proliferation inhibition rate=[(control group A450-blank group A450)−(experimental group A450−blank group A450)/(control group A450−blank group A450)]×100%.
In general terms: Tetrazolium assays rely on reduction of a dye to a coloured formazan, in cell work by metabolically active cells.

In another series the test system is caspase-8. The series can be described thus: Western blot of tumor tissue, caspase-8. Format: in vivo, nude mice. The note with it: FIG. 7. As for the experimental part:
(§6) After the tumor tissue was thawed on ice, 50 mg of tumor tissue was taken into a tissue homogenization tube, and 500 μL of tissue lysate containing protease inhibitors and phosphatase inhibitors was added (usage of Roche brand tablets: 1 tablet/10 mL). After high-speed homogenization, centrifugation was performed at 12,000 rpm/min for 15 min, the supernatant was taken, and the protein concentration of the sample was measured by a BCA method. After the concentration of each sample was adjusted to the same, a protein loading buffer (5× Loading buffer) was added, denaturation was performed at 100° C. for 10 min, and preservation was performed at −80° C.
(§7) An appropriate brand of 10% pre-mixed polyacrylamide gel preparation solution was selected, and then, the gel (including separating gel and stacking gel) used in the experiment was prepared according to the instructions for use, which takes about 2 h. In the process of waiting for gel solidification, an SDS-PAGE gel electrophoresis solution was prepared in advance, the prepared gel was put in an electrophoresis tank, then the electrophoresis solution was added, and 10-30 μL of sample was added to each well of loading slot. After the sample runs through the stacking gel at a low pressure of 80 V, the voltage was adjusted to 100 V to make the sample run through the entire block of gel, so as to complete the SDS-PAGE gel electrophoresis operation. Secondly, a membrane transfer operation was performed (a PVDF membrane was pre-wetted in methanol for 5 min in advance), and membrane transfer conditions were: 300 mA, 120-150 min (corresponding to the time selection of the dividing line with a molecular weight of 100 kDa, wherein the selected membrane transfer time of the separated protein with a molecular weight less than 100 kDa was 120 min, and the selected membrane transfer time of the separated protein with a molecular weight greater than 100 kDa was 150 min). […] An ECL luminescent solution was used as a substrate to expose the target band, and the results were analyzed, recorded and counted.
On the technique in general: In western blotting, separated proteins are transferred to a membrane and probed.

A further series concerns LO2 cells. The series can be described thus: Cell toxicity experiment (LDH activity of culture supernatant). In kind it is cell-based. To be noted: normal liver cells, 0, 10, 50 and 100 nM, 24 h; FIG. 8. As for the experimental part:
2.1 Cell Toxicity Experiment
Logarithmically growing LO2 cells were taken and inoculated in a 96-well plate at 1×10^4 cells per well. The cells treated with drugs with final concentrations of 0, 10, 50 and 100 nM were used respectively, the culture supernatant was collected after 24 h, and the LDH activity of the culture supernatant was detected by the Roche biochemical analyzer.

The test system of another series is PARP. The series can be described thus: Apoptosis-related proteins by western blot, PARP in BEL-7402 cells. In kind it is cell-based. To be noted: BEL-7402 cells, 0, 50 and 100 nM, 24 h, FIG. 10 B. As for the experimental part: as §1, §2, §3
The subject of the next series is p53. The series can be described thus: Western blot of tumor tissue, p53. Format: in vivo, nude mice. To be noted: FIG. 7. As for the experimental part:
as §6, §7

Series [2] relates to Hep3B liver cancer cells. The series can be described thus: Cell proliferation by MTT method, Hep3B. Format: cell-based. To be noted: Hep3B, 10, 25, 50, 100 nM, 24 h, FIG. 9. As for the experimental part: as §4, §5
Series [3] concerns HepG2 subcutaneous implanted tumor (HepG2-Luc). The series can be described thus: Inhibition experiment on HepG2 subcutaneous implanted tumor in nude mice. Format: in vivo. As for the experimental part: 2.1 Establishment of Animal Models
Establishment of HepG2-Luc cell line stably expressing luciferase: HepG2 cells in the logarithmic growth phase were taken and placed into a 24-well plate at 1×10^5/well, and cultured overnight to make the cells fully adherent. An original medium was replaced with 2 mL of fresh medium containing 6 μg/mL polybrene, about 1×10^5 transfection units of recombinant lentiviral particles stably expressing luciferase were added, and after incubation was performed for 4 h at 37° C., 2 mL of fresh medium was added to dilute the polybrene. The culture was continued, and a virus-containing medium was replaced with a fresh medium. The culture was continued, a medium containing puromycin was replaced for resistance screening, drug-resistant clones were picked and screened for two weeks, and finally, a cell line HepG2-Luc stably expressing luciferase was obtained.
Construction of bear mice by HepG2-Luc cell line: the cryopreserved HepG2-Luc cells were recovered to a 100 cm^2 culture flask, cultured in vitro to the logarithmic growth phase and digested with 0.25% trypsin containing EDTA, the cells were collected and centrifuged at 1000 rpm for 3 min at a room temperature, the supernatant was discarded, the cells were washed with a serum-free DMEM medium, and the cell viability was detected by a trypan blue exclusion assay (only if the proportion of viable cells exceeded 95%, the experimental requirements were met). A small amount of the serum-free DMEM medium was added to resuspend the cells, and the cells were counted. […]
Detection of tumor growth by animal in-vivo imaging system: each nude mouse was intraperitoneally injected with 150 μL of 30 mg/kg […] substrate and observed for 15 min, the nude mouse was anesthetized with diethyl ether in an induction box for 5 min, the anesthetized nude mouse was quickly transferred into an observation box, the head of the nude mouse was aligned and fixed in a conical nasal plug, parameters were set for fluorescence imaging (if there was tumor growth, fluorescence signals with different intensities can be detected at the corresponding positions), after the imaging, the nude mouse was transferred into the induction box again, and an oxygen valve was turned on to revive the nude mouse.
18 random numbers were generated by Excel software, the random numbers were corresponding to the numbers of the nude mice, and the nude mice were equally divided into model groups according to the size of the random numbers, namely a low-dose group (100 μg/kg), a middle-dose group (200 μg/kg) and a high-dose group (400 μg/kg). After random grouping, the nude mice were weighed and the tumor volume was measured. […]

The test system of series [4] is caspase-3. The series can be described thus: Western blot of tumor tissue, caspase-3. Format: in vivo, nude mice. To be noted: FIG. 7. As for the experimental part:
as §6, §7

The subject of series [5] is BEL-7402 liver cancer cells. The series can be described thus: Cell proliferation by MTT method, BEL-7402. In kind it is cell-based. The note with it: BEL-7402, 10, 25, 50, 100 nM, 24 h, FIG. 9. As for the experimental part: as §4, §5
For series [6], the system named is SMMC-7721 liver cancer cells. The series can be described thus: Cell proliferation by MTT method, SMMC-7721. To be noted: SMMC-7721, 10, 25, 50, 100 nM, 24 h, FIG. 9. Format: cell-based. As for the experimental part: as §4, §5
For another series, the system named is Huh7 cells. The series can be described thus: Scratch test. To be noted: 50 nM, 24 and 48 h, serum-free medium; P<0.05; FIG. 11. Format: cell-based. As for the experimental part:
Huh7 cells in the logarithmic growth phase were taken and inoculated in a 24-well plate at 5×10^5 cells per well. After the cells were overgrown, a sterile pipette tip was used for scratching, the cells were washed 3 times with PBS after scratching, the scratched cells were removed, a serum-free medium containing 50 nM TPO was added to continue the culture for 24 and 48 h, and photographing was performed. The scratch photo was analyzed by Image J software, the scratch distance was calculated, and the scratch healing was evaluated.

The subject of series [7] is BEL-7402 liver cancer cells. The series can be described thus: Cell apoptosis by flow cytometry, BEL-7402. Format: cell-based. To be noted: BEL-7402, 0, 50 and 100 nM, 24 h, FIG. 10 A. As for the experimental part: (§8) 2.3 Detection of Cell Apoptosis by Flow Cytometry
(§9) Liver cancer cells in the logarithmic growth phase were taken and inoculated in a 12-well plate at 5×10^5 cells per well. The cells treated with triptolide acrylate (hereinafter referred to as TPO) and triptolide triol (hereinafter referred to as TP-3-OH) with final concentrations of 0, 50 and 100 nM were used. After 24 h of treatment, the cells were digested and collected with 0.25% EDTA-free pancreatin, washed twice with pre-cooled PBS, and resuspended with 300 μL 1× Binding Buffer. 5 μL FITC Annexin V and 5 μL PI were added to each tube of cell suspension and incubated at a room temperature for 5 min in the dark, and the flow cytometry was used for detection within 1 h.
On the technique in general: In flow cytometry, cells or beads pass a laser one at a time.

The test system of series [8] is Hep3B liver cancer cells. The series can be described thus: Cell apoptosis by flow cytometry, Hep3B. In kind it is cell-based. The note with it: Hep3B, 0, 50 and 100 nM, 24 h, FIG. 10 A. As for the experimental part:
as §8, §9

`C=CC(=O)O[C@@H]1[C@@]2(C(C)C)O[C@H]2[C@@H]2O[C@]23[C@]12O[C@H]2C[C@H]1C2=C(CC[C@@]13C)C(=O)OC2` [triptolide acrylate]: the “cleavage of Caspase-3” value in the series on Caspase-3 [1] is given as “significantly increased”. Further, the “inhibiting effect on proliferation” value (in the series on HepG2 liver cancer cells; in the series on Hep3B liver cancer cells [2]; in series [5]; in series [6]) was “significant inhibiting effect” in each case. The “protein expression quantity of caspase-8” value is “reduce” in the series on caspase-8 (high-dose group (400 μg/kg)), “reduce” in the series with caspase-8 (low-dose group (100 μg/kg)) and “significantly increase” with caspase-8 (middle-dose group (200 μg/kg)). For the same molecule, the “LDH activity of the culture supernatant of LO2 cells” value with LO2 cells is listed as “significantly lower than that of the TPL treatment group”. Also, the “cleavage of PARP” value in the series on PARP was “significantly increased”. In addition, the results for the “protein expression quantity of p53” value with p53 (high-dose group (400 μg/kg)), in the series on p53 (low-dose group (100 μg/kg)) and in the series with p53 (middle-dose group (200 μg/kg)) were “significantly increase”, “no significant change” and “no significant change”, respectively. Also, the “tumor volume (subcutaneous implanted tumor seen on skin surface)” value in series [3] (administration group (especially the high-dose group) vs model group, dose-dependent, FIG. 5) is on record as “significantly less than that of the model group”. Besides, in series [3] (administration group vs model group, FIG. 6), the “tumor volume of tumor tissues stripped after sacrifice” value is reported as “less than that of the model group”. Also, the “fluorescence signals in the tumors of the nude mice” value in [3] (each dose group (100, 200, 400 μg/kg), intraperitoneal injection once a day for 13 days, compared with the model group, dose-dependent, FIG. 4) is “significantly weakened”. Besides, in [3] (high-dose group (400 μg/kg), intraperitoneal injection once a day for 13 days, FIG. 4), the “fluorescence signal in the tumors of the nude mice” value is on record as “weakened more obviously”. For the same molecule, the results for the “protein expression quantity of caspase-3” value with caspase-3 [4] (high-dose group (400 μg/kg)), in the series with caspase-3 [4] (low-dose group (100 μg/kg)) and in the series with caspase-3 [4] (middle-dose group (200 μg/kg)) were “significantly increase”, “reduce” and “significantly increase”, respectively. The “migration of Huh7 cells (scratch healing)” value in the series on Huh7 cells is recorded as “significantly inhibit”. The “proportion of Annexin V and PI positive cells (induction of apoptosis)” value (in [7]; in the series with Hep3B liver cancer cells [8]) was “significantly increased” in each case.
“triptolide triol [TP-3-OH, reference compound]”: the “inhibiting effect on proliferation” value (in the series with HepG2 liver cancer cells; in the series with Hep3B liver cancer cells [2]; in [5]; in [6]) was “no obvious inhibiting effect” in each case. In the series with LO2 cells, the “LDH activity of the culture supernatant of LO2 cells” value was “significantly lower than that of the TPL treatment group”. Also, the “proportion of Annexin V and PI positive cells (induction of apoptosis)” value (in series [7]; with Hep3B liver cancer cells [8]) was “not obvious” in each case.

The values are drawn from patent US11660285B2, “Triptolide acrylate, preparation method therefor and use thereof” (GUANGDONG PROVINCIAL HOSPITAL OF TCM, priority 2019, dated 2023).
